Assay: Solubility evaluation at room temperature in methyl benzoate and ethyl benzoate
Assay type: physicochemical
Conditions: for solubility: room temperature, concentration of 2 wt %
Method: The solubility of each of the compound prepared in the synthesis examples and the comparative compound [BH1] was measured at room temperature in methyl benzoate and ethyl benzoate. The case in which all the components were dissolved at a concentration of 2 wt % was evaluated as O, and the case in which all the components were not dissolved was evaluated as X, and the results are shown in the following Table 1.

| SMILES | solubility (ethyl benzoate) | solubility (methyl benzoate) | solubility with respect to methyl benzoate |
| --- | --- | --- | --- |
| [2H]c1c([2H])c([2H])c(-c2c3ccccc3c(-c3c(CCC)c4ccccc4c4ccccc34)c3ccccc23)c([2H])c1[2H] [Compound 55] | ◯ | ◯ |  |
| c1ccc2c(-c3c4ccccc4c(-c4cccc5ccccc45)c4ccccc34)cccc2c1 [BH1, reference compound] |  |  | < 2 wt % |
| CC(C)c1cc(-c2c3ccccc3c(-c3cc4ccccc4c4ccccc34)c3ccccc23)cc(C(C)C)c1 [Compound 46] | ◯ | ◯ |  |
